Source: patent US20240287138A1, “CYCLIC PEPTIDES FOR INHIBITING TNF RECEPTOR 1 ACTIVITY” (Merck Sharp & Dohme LLC, priority 2023, published 2024)
Numbered stars: 1 amine (or outer) side, 2 acyl side, 3 side chain; on linkers, the order of the positions; unused ones are H or OH. Bridge positions count the residues as written; N and C are the ends. Square brackets hold non-standard residues; d marks the D form. Peptide text beside a SMILES is read from it. * marks the point of attachment. Trp(βS-Me,7-OMe) = COc1cccc2c([C@H](C)[C@H](N)C(=O)O)c[nH]c12; X12 = C[C@@H](c1ccc(O)cc1)[C@H](N[*:1])C(=O)[*:2]; Trp(7-Br) = N[C@@H](Cc1c[nH]c2c(Br)cccc12)C(=O)O; Trp(7-Cl) = N[C@@H](Cc1c[nH]c2c(Cl)cccc12)C(=O)O; Phe(4-CONH2) = NC(=O)c1ccc(C[C@H](N)C(=O)O)cc1; Phe(4-COOH) = N[C@@H](Cc1ccc(C(=O)O)cc1)C(=O)O; Trp(7-aza) = N[C@@H](Cc1c[nH]c2ncccc12)C(=O)O; Pip(5R-OH) = O=C(O)[C@@H]1CC[C@@H](O)CN1; X1 = O=C([C@@H]1CC[C@H](N[*:1])C1)[*:2]; Pip(4-aza) = O=C(O)[C@@H]1CNCCN1; 4Pal = N[C@@H](Cc1ccncc1)C(=O)O; NMeE = CN[C@@H](CCC(=O)O)C(=O)O; αMeS = C[C@](N)(CO)C(=O)O; Carboxymethyl = O=C(O)C*; Nle = CCCC[C@H](N)C(=O)O; Sar = CNCC(=O)O

What was measured:
[1] = target: T1, human TNFR1 extracellular domain (ECD) protein (Homo sapiens, UniProt P19438); experiment: SPR binding affinity to captured human TNFR1 ECD
T1 construct: HRV 3C protease cleavage site (C); 6His (C, cleaved yes); made in house; host or cells: Sf21 insect cells (baculovirus), secreted
T1 sequence (P19438 30-211): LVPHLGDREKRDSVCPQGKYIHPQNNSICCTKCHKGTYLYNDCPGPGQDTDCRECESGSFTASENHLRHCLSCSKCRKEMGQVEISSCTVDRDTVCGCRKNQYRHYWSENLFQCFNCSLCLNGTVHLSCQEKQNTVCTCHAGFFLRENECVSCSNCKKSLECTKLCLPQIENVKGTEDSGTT
Protocol: (§1) B. Procedure for Binding Affinity and Selectivity measured by SPR
(§2) Affinity and selectivity for hTNFR1 and TNFR2 was determined using SPR. Human TNFR1 or TNFR2 genes (extracellular domain only) were synthesized with a C-terminal Avi-tag, HRV 3C protease cleavage site followed by a 6His-tag for affinity purification. The final gene product was cloned into pBAC™-1 vector (Millipore Sigma) for expression testing in insect cells. Constructs were transfected into Sf21 cells for baculovirus generation followed by protein expression analysis in Sf21 and Tni cell lines. Large scale expression in Sf21 cells was performed using baculovirus infected insect cells (BIICs) infected at a MOI=2.0 grown for 72 h. Target proteins secreted into the media were harvested via centrifugation and concentrated using diafiltration. TNFR was purified by immobilized metal ion affinity chromatography (IMAC) using a Ni-Sepharose HisTrap™ column (Cytiva™). Isolated TNFR had His tag removed using HRV 3C protease followed by additional purification using Ni-NTA chromatography. Biotinylation was performed on Ni-NTA flow-through fractions concentrated to 45 μM and treated with BirA ligase (1:100, μg/μg ratio) in 50 mM Tris pH 7.5, 150 mM NaCl, 50 μM biotin, 10 mM magnesium acetate, 10 mM ATP at 4° C. for 20 h. Final purification of biotin-TNFR and buffer exchange into 20 mM HEPES pH 7.5, 150 mM NaCl was performed using a HiLoad® Superdex® 200 26/60 column (Cytiva™). Highly purified protein was aliquoted and stored at −80° C.
(§3) The SPR assay uses a Cytiva™ 8K or 8K+ biosensor instrument to measure the kinetics of peptide analytes binding to captured human TNFR1 extracellular domain (ECD) protein; peptide analytes are also evaluated for any off-target binding to human TNFR2 ECD protein in parallel. Recombinant human TNFR1 ECD and human TNFR2 ECD proteins, biotinylated via engineered C-terminal avi-tags, are immobilized to a regenerable streptavidin biosensor chip surface (Cytiva™ Biotin CAPture kit, Series S; cat. #28920234). Peptide analytes binding to immobilized human TNFR1 ECD protein and their subsequent dissociation are conducted in a buffer of 10 mM HEPES pH 7.4, 150 mM NaCl, 3 mM EDTA, 0.05% P20,2% DMSO under laminar flow conditions and measured in response units (RU), which are directly proportional to the accumulated mass on the surface of the biosensor chip; the biosensor chip surface is regenerated via Cytiva™ proprietary methods between the evaluation of each peptide analyte. […] The SPR assay determines the association and dissociation rate constants, kon and koff, for each peptide analyte and, from these values, calculates the binding affinity, […] reported in Table 2.

[2] = target: T2, TNFα-induced NF-κB signal transduction pathway (TNFR1 signaling) in THP-1 cells (Homo sapiens, UniProt P19438); experiment: THP-1 Lucia NF-κB reporter cell assay, inhibition of TNFα-induced NF-κB signaling; assay type: cell-based; conditions: THP-1 NF-κB Lucia reporter cells, 10 ng/mL TNFα, 16-18 h, secreted luciferase; read-out: THP-1 IC50
T2 sequence (P19438 30-455): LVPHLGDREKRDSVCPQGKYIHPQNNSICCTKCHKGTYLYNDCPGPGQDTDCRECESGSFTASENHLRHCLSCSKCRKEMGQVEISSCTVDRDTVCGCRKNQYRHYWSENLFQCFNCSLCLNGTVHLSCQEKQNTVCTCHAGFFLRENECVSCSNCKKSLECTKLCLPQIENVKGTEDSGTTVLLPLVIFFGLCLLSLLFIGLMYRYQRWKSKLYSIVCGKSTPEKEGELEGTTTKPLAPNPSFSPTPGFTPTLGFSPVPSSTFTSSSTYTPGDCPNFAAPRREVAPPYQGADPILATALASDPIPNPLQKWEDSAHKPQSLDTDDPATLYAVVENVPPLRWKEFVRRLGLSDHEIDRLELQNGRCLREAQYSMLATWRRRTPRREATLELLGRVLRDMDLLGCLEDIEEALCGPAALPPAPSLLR
Outline: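 Macrocyclic peptides were preincubated 1 h at 37 °C with THP-1 NF-κB-Lucia reporter cells (20,000 cells/well) in antibiotic-free RPMI 1640/10% FBS, then stimulated with 10 ng/mL human TNFα overnight (16-18 h). Secreted luciferase in supernatant was read by luminescence; IC50 from 4-parameter logistic fits.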

[3] = target: T3, human TNFR2 ECD protein (Homo sapiens, UniProt P20333); experiment: SPR off-target binding (selectivity) to human TNFR2 ECD
T3 construct: HRV 3C protease cleavage site (C); 6His (C, cleaved yes); made in house; host or cells: Sf21 insect cells (baculovirus), secreted
T3 sequence (P20333 23-257): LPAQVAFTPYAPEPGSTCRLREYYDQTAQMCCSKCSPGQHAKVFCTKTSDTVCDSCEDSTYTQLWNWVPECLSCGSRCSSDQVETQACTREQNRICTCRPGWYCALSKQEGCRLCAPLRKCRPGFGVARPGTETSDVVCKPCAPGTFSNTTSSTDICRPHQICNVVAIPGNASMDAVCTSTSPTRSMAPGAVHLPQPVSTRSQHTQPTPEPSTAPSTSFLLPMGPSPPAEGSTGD
Protocol: as §1, §2, §3

Compound	Kd [1] [nM]	IC50 [2] [nM]	Kd [3] [nM]
CCCC[C@@H]1NC(=O)CSC[C@@H](C(N)=O)NC(=O)[C@H]([C@@H](C)c2c[nH]c3c(OC)cccc23)NC(=O)CN(C)C(=O)[C@H](Cc2ccc(O)cc2)NC(=O)[C@H](Cc2ccc(C(N)=O)cc2)NC(=O)[C@](C)(CO)NC(=O)[C@H](Cc2c[nH]c3c(Br)cccc23)NC(=O)[C@H](Cc2ccncc2)NC(=O)[C@H](CC(N)=O)NC(=O)[C@H](CCC(=O)O)N(C)C(=O)[C@H](Cc2c[nH]c3ccccc23)NC(=O)[C@@H]2CC[C@@H](O)CN2C(=O)[C@H](Cc2ccncc2)NC1=O [SEQ ID NO. 39] ({CH2CO}-[Nle][4Pal][Pip(5R-OH)]W[NMeE]N[4Pal][Trp(7-Br)][αMeS][Phe(4-CONH2)]Y[Sar][Trp(βS-Me,7-OMe)]C-NH2; thioether N-14)	0.05	0.9	> 1000
CCCC[C@@H]1NC(=O)[C@@H]2CC[C@@H](C2)NC(=O)[C@H]([C@@H](C)c2c[nH]c3c(OC)cccc23)NC(=O)CN(C)C(=O)[C@H](Cc2ccc(O)cc2)NC(=O)[C@H](Cc2ccc(C(N)=O)cc2)NC(=O)[C@](C)(CO)NC(=O)[C@H](Cc2c[nH]c3c(Cl)cccc23)NC(=O)[C@H](Cc2ccc(OCC(=O)O)cc2)NC(=O)[C@H](CC(N)=O)NC(=O)[C@H](CCC(=O)O)N(C)C(=O)[C@H](Cc2c[nH]c3ccccc23)NC(=O)[C@@H]2CC[C@@H](O)CN2C(=O)[C@H](Cc2ccncc2)NC1=O [SEQ ID NO. 44] (cyclo([4Pal][Pip(5R-OH)]W[NMeE]NY(Carboxymethyl)[Trp(7-Cl)][αMeS][Phe(4-CONH2)]Y[Sar][Trp(βS-Me,7-OMe)][X1][Nle]))	0.16	0.5	> 1000
CCCC[C@@H]1NC(=O)CSC[C@@H](C(N)=O)NC(=O)[C@H]([C@@H](C)c2c[nH]c3c(OC)cccc23)NC(=O)CN(C)C(=O)[C@H](Cc2ccc(O)cc2)NC(=O)[C@H](Cc2ccc(C(=O)O)cc2)NC(=O)[C@](C)(CO)NC(=O)[C@H](Cc2c[nH]c3c(Cl)cccc23)NC(=O)[C@H](Cc2ccncc2)NC(=O)[C@H](CC(N)=O)NC(=O)[C@H](CCC(=O)O)N(C)C(=O)[C@H](Cc2c[nH]c3ncccc23)NC(=O)[C@H](CO)NC(=O)[C@H]([C@@H](C)c2ccc(O)cc2)NC1=O [SEQ ID NO. 46] ({CH2CO}-[Nle][X12]S[Trp(7-aza)][NMeE]N[4Pal][Trp(7-Cl)][αMeS][Phe(4-COOH)]Y[Sar][Trp(βS-Me,7-OMe)]C-NH2; thioether N-14)	0.07	3	> 1000
CCCC[C@@H]1NC(=O)CSC[C@@H](C(N)=O)NC(=O)[C@H]([C@@H](C)c2c[nH]c3c(OC)cccc23)NC(=O)CN(C)C(=O)[C@H](Cc2ccc(C(N)=O)cc2)NC(=O)[C@H](Cc2ccc(C(=O)O)cc2)NC(=O)[C@](C)(CO)NC(=O)[C@H](Cc2c[nH]c3c(Cl)cccc23)NC(=O)[C@H](Cc2ccncc2)NC(=O)[C@H](CC(N)=O)NC(=O)[C@H](CCC(=O)O)N(C)C(=O)[C@H](Cc2c[nH]c3ccccc23)NC(=O)[C@@H]2CNCCN2C(=O)[C@H](Cc2ccncc2)NC1=O [SEQ ID NO. 124] ({CH2CO}-[Nle][4Pal][Pip(4-aza)]W[NMeE]N[4Pal][Trp(7-Cl)][αMeS][Phe(4-COOH)][Phe(4-CONH2)][Sar][Trp(βS-Me,7-OMe)]C-NH2; thioether N-14)	0.12		> 1000
